According to patent publication US7141533B2, “Hetaryl-substituted heterocycles” (Bayer CropScience AG, priority 2000, dated 2006):

Tests used:
[1] = test system: larvae of the mustard beetle (Phaedon cochleariae); test: Phaedon larvae test; type: in vivo; conditions: cabbage leaves dipped
Method: (§1) [table] To produce a suitable preparation of active compound, 1 part by weight of active compound is mixed with the stated amounts of solvent and emulsifier, and the concentrate is diluted with emulsifier-containing water to the desired concentration. Cabbage leaves (Brassica oleracea) are treated by being dipped into the preparation of active compound of the desired concentration and are populated with the larvae of the mustard beetle (Phaedon cochleariae) while the leaves are still moist. After the desired period of time, the kill in % is determined. 100% means that all beetle larvae have been killed; 0% means that none of the beetle larvae have been killed.

Avena fatua [2] = test: Post-emergence test; type: in vivo; conditions: after three weeks
Method: (§2) [table] To produce a suitable preparation of active compound, 1 part by weight of active compound is mixed with the stated amount of solvent, the stated amount of emulsifier is added and the concentrate is diluted with water to the desired concentration. Test plants of a height of 5 to 15 cm are sprayed with the preparation of active compound such that the particular amounts of active compound desired are applied per unit area. The concentration of the spray liquor is chosen such that the particular amounts of active compound desired are applied in 1000 1 of water/ha. After three weeks, the degree of damage to the plants is rated in % damage in comparison to the development of the untreated control. [table]

Digitaria = test: Post-emergence test; type: in vivo; conditions: after three weeks
Method: as §2

Echinochloa = test: Post-emergence test; type: in vivo; conditions: after three weeks
Method: as §2

Stellaria = test: Post-emergence test; type: in vivo; conditions: 250 g ai/ha, after three weeks
Method: as §2

rice = test: Post-emergence test; type: in vivo; conditions: 250 g ai/ha, after three weeks
Method: as §2

[3] = test system: caterpillars of the army worm (Spodoptera frugiperda); test: Spodoptera frugiperda test; type: in vivo; conditions: cabbage leaves dipped
Method: as §1, with “caterpillars” for “the larvae”, “army worm (Spodoptera frugiperda)” for “mustard beetle (Phaedon cochleariae)”, “caterpillars” for “beetle larvae”

[4] = test system: greenhouse red spider mite (Tetranychus urticae); test: Tetranychus test (OP-resistant/dip treatment); type: in vivo; conditions: bean plants dipped, OP-resistant
Method: [table] To produce a suitable preparation of active compound, 1 part by weight of active compound is mixed with the stated amounts of solvent and emulsifier, and the concentrate is diluted with emulsifier-containing water to the desired concentration. Bean plants (Phaseolus vulgaris) which are heavily infested by all stages of the greenhouse red spider mite (Tetranychus urticae) are dipped into a preparation of active compound of the desired concentration. After the desired period of time, the effect in % is determined. 100% means that all spider mites have been killed. 0% means that none of the spider mites have been killed.

Abutilon = test: Post-emergence test; type: in vivo; conditions: 250 g ai/ha, after three weeks
Method: as §2

Alopecurus [5] = test: Post-emergence test; type: in vivo; conditions: after three weeks
Method: as §2

Amaranthus = test: Post-emergence test; type: in vivo; conditions: 250 g ai/ha, after three weeks
Method: as §2

Setaria [6] = test: Post-emergence test; type: in vivo; conditions: 250 g ai/ha, after three weeks
Method: as §2

[7] = test system: peach aphid (Myzus persicae); test: Myzus test; type: in vivo; conditions: cabbage leaves dipped
Method: as §1, with “oleracea) which are heavily infested by the peach aphid (Myzus persicae)” for “oleracea)”, “concentration.” for “concentration and are populated with the larvae of the mustard beetle (Phaedon cochleariae) while the leaves are still moist.”, “aphids” for “beetle larvae”

Sinapis = test: Post-emergence test; type: in vivo; conditions: 250 g ai/ha, after three weeks
Method: as §2

sugar beet [8] = test: Post-emergence test; type: in vivo; conditions: after three weeks
Method: as §2

Meloidogyne incognita = test: Meloidogyne test; type: in vivo; conditions: Meloidogyne incognita egg/larvae on lettuce in sand
Method: [table] To produce a suitable preparation of active compound, 1 part by weight of active compound is mixed with the stated amounts of solvent and emulsifier, and the concentrate is diluted with water to the desired concentration. Containers are filled with sand, solution of active compound, Meloidogyne incognita egg/larvae suspension and lettuce seeds. The lettuce seeds germinate and the plants develop. On the roots, galls are formed. After the desired period of time, the nematicidal action in % is determined using the formation of galls as a measure. 100% means that no galls have been found; 0% means that the number of galls on the treated plants corresponds to that on the untreated control.

Alopecurus [9] = test: Pre-emergence test; type: in vivo; conditions: 125 g ai/ha, after three weeks
Method: (§3) [table] To produce a suitable preparation of active compound, 1 part by weight of active compound is mixed with the stated amount of solvent, the stated amount of emulsifier is added and the concentrate is diluted with water to the desired concentration. Seeds of the test plants are sown in normal soil. After about 24 hours, the soil is sprayed with the preparation of active compound such that the particular amounts of active compound desired are applied per unit area. The concentration of the spray liquor is chosen such that the particular amounts of active compound desired are applied in 1000 1 of water/ha. After three weeks, the degree of damage to the plants is rated in % damage in comparison to the development of the untreated control. [table]

Avena fatua [10] = test: Pre-emergence test; type: in vivo; conditions: after three weeks
Method: as §3

Lolium = test: Pre-emergence test; type: in vivo; conditions: after three weeks
Method: as §3

Matricaria = test: Pre-emergence test; type: in vivo; conditions: 125 g ai/ha, after three weeks
Method: as §3

Setaria [11] = test: Pre-emergence test; type: in vivo; conditions: after three weeks
Method: as §3

oilseed rape [12] = test: Pre-emergence test; type: in vivo; conditions: after three weeks
Method: as §3

sugar beet [13] = test: Pre-emergence test; type: in vivo; conditions: after three weeks
Method: as §3

Chenopodium = test: Post-emergence test; type: in vivo; conditions: 250 g ai/ha, after three weeks
Method: as §2

oilseed rape [14] = test: Post-emergence test; type: in vivo; conditions: 250 g ai/ha, after three weeks
Method: as §2

Bromus = test: Pre-emergence test; type: in vivo; conditions: 250 g ai/ha, after three weeks
Method: as §3

Soya bean = test: Post-emergence test; type: in vivo; conditions: 250 g ai/ha, after three weeks
Method: as §2

[15] = logP (HPLC; acetonitrile); type: physicochemical; conditions: for logP (pH2): pH 2
From the text: Yield: 2.4 g ( ? 41.62% of theory), logP (acidic) 4.54 (HPLC; acetonitrile).

| SMILES | kill of beetle larvae [1] | % damage Avena fatua (Avena fatua [2]; 250 g ai/ha) [%] | % damage Echinochloa (Echinochloa; 250 g ai/ha) [%] | kill of caterpillars [3] | % damage Alopecurus (Alopecurus [5]; 250 g ai/ha) [%] | % damage Amaranthus (Amaranthus) [%] | % damage Setaria (Setaria [6]) [%] | other results |
| --- | --- | --- | --- | --- | --- | --- | --- | --- |
| COC1CCC2(CC1)NC(=O)C(c1nc(-c3ccc(Cl)cc3)sc1C)=C2O (single isomer, unassigned) [Example I-1-A-a-3] | good activity | 100 | 100 |  |  |  |  | % damage Digitaria (Digitaria; 250 g ai/ha): 100%; % damage Stellaria (Stellaria): 90%; % damage rice (rice): 10% |
| CCOC1CCC2(CC1)NC(=O)C(c1nc(-c3ccc(Cl)cc3)sc1C)=C2O (single isomer, unassigned) [Example I-1-A-a-4] | good activity | 100 | 100 | good activity | 95 | 95 | 100 | effect on spider mites [4]: good activity; % damage Abutilon (Abutilon): 80% |
| COC1CCC2(CC1)NC(=O)C(c1nc(-c3ccc(C)cc3)sc1C)=C2O (single isomer, unassigned) [Example I-1-A-a-8] | good activity |  |  |  |  |  |  | kill of aphids [7]: good activity |
| Cc1sc(-c2ccc(Cl)cc2)nc1C1=C(O)C2(CCC(C)CC2)NC1=O (stereo not shown) [Example I-1-A-a-1] | good activity | 80 | 95 | good activity | 80 | 70 |  | % damage Sinapis (Sinapis): 80% |
| Cc1sc(-c2ccc(Cl)cc2)nc1C1=C(O)C(C)(C)NC1=O [Example I-1-A-a-2] | good activity |  | 90 | good activity | 70 | 90 | 95 |  |
| Cc1sc(-c2ccc(Cl)cc2)nc1C1=C(O)C2(CCOCC2)NC1=O [Example I-1-A-a-5] | good activity |  | 100 | good activity | 80 | 90 |  | kill of aphids [7]: good activity; effect on spider mites [4]: good activity |
| Cc1sc(-c2ccc(Cl)cc2)nc1C1=C(O)C2(CCCOC2)NC1=O (stereo not shown) [Example I-1-A-a-6] | good activity |  |  | good activity |  |  |  | kill of aphids [7]: good activity; effect on spider mites [4]: good activity; % damage Alopecurus (Alopecurus [5]; 125 g ai/ha): 90%; % damage Avena fatua (Avena fatua [2]; 125 g ai/ha): 90%; % damage Digitaria (Digitaria; 125 g ai/ha): 95%; % damage Echinochloa (Echinochloa; 125 g ai/ha): 90%; % damage sugar beet (sugar beet [8]; 125 g ai/ha): 0% |
| COC1CCC2(CC1)NC(=O)C(c1nc(-c3ccc(Cl)cc3)sc1C)=C2OC(=O)C(C)C (stereo not shown) [Example I-1-A-b-1] |  | 100 | 100 |  | 95 | 80 | 100 | % damage Abutilon (Abutilon): 80% |
| CCOC(=O)OC1=C(c2nc(-c3ccc(Cl)cc3)sc2C)C(=O)NC12CCC(OC)CC2 (stereo not shown) [Example I-1-A-c-1] | good activity | 95 | 95 | good activity | 80 |  | 90 |  |
| COC1CCC2(CC1)OC(=O)C(c1nc(-c3ccc(Cl)cc3)sc1C)=C2O (stereo not shown) [Example I-2-A-a-1] | good activity | 95 | 100 | good activity | 80 | 70 | 100 | nematicidal action (formation of galls) (Meloidogyne incognita): good activity; kill of aphids [7]: good activity; % damage Alopecurus (Alopecurus [9]): 90%; % damage Avena fatua (Avena fatua [10]; 125 g ai/ha): 100%; % damage Lolium (Lolium; 125 g ai/ha): 100%; % damage Matricaria (Matricaria): 100%; % damage Setaria (Setaria [11]; 125 g ai/ha): 100%; % damage oilseed rape (oilseed rape [12]; 125 g ai/ha): 0%; % damage sugar beet (sugar beet [13]; 125 g ai/ha): 0%; % damage Chenopodium (Chenopodium): 70%; % damage oilseed rape (oilseed rape [14]): 20% |
| Cc1sc(-c2ccc(Cl)cc2)nc1C1=C(O)C(C)(C)OC1=O [Example I-2-A-a-2] | good activity | 90 | 100 |  |  |  | 95 | nematicidal action (formation of galls) (Meloidogyne incognita): good activity; effect on spider mites [4]: good activity; % damage Avena fatua (Avena fatua [10]; 250 g ai/ha): 90%; % damage Bromus (Bromus): 90%; % damage Lolium (Lolium; 250 g ai/ha): 100%; % damage Setaria (Setaria [11]; 250 g ai/ha): 100%; % damage oilseed rape (oilseed rape [12]; 250 g ai/ha): 0%; % damage sugar beet (sugar beet [13]; 250 g ai/ha): 0%; % damage Digitaria (Digitaria; 250 g ai/ha): 90%; % damage Soya bean (Soya bean): 0%; % damage sugar beet (sugar beet [8]; 250 g ai/ha): 0% |
| Cc1oc(-c2ccccc2)nc1C1=C(O)C(C)(C)OC1=O [Example I-2-B-a-2] |  |  |  |  |  |  |  | logP (pH2) [15]: 3.43 |
| CCOC(=O)C1(OC(=O)Cc2nc(-c3ccc(Cl)cc3)sc2C)CCC(OC)CC1 (stereo not shown) [III-A-1] |  |  |  |  |  |  |  | chromatographic logP ([15]; acidic, HPLC, acetonitrile): 4.54 |
| CCOC(=O)C(C)(C)OC(=O)Cc1nc(-c2ccc(Cl)cc2)sc1C [III-A-2] |  |  |  |  |  |  |  | logP (pH2) [15]: 4.53 |
